Tests used:
cerebral ischemia = assay: General and permanent cerebral ischemia in rat (ligature of the two common carotid arteries); type: in vivo, male Wistar rats; conditions: 0.76 μg/kg (3.2 nmoles) i.p.; maximum score 17; control 12; P 0.005
Experimental: (a) General and permanent cerebral ischemia in rat. Male Wistar rats (200 to 250 g) are anesthetized by inhalation of halothane (1 to 5%) contained in a N2 O--O2 (70:30) mixture. The two common carotid arteries are ligatured simultaneously close to the passage between the internal carotid and external carotid using the method described by M. LE PONCIN-LAFITTE et al., J. Pharmacol. (Paris), 14, (1983), 99-102.
The compound to be tested is administered intraperitoneally for a first time 30 minutes before making the ligatures, and subsequently 30 minutes and 270 minutes after making the ligatures. On the next day, and on the day after the next, the neurological deficit in the surviving animals is evaluated by the method described by C. CAPDEVILLE et al., J. Pharmacol. (Paris), 15, (1984), 231-237, and by B. KOLB et al., Neurobehav. Toxicol. Teratol. 7, (1985), 71-78. […] Table III gives for compound A, administered intraperitoneally at a dose of 0.76 μg/kg (3.2 nmoles), the mean of the neurological scores determined for the whole group of surviving animals of the control group and of the treated group, as recorded two days after the ligatures. The statistical significance (P) of the difference observed between these mean values is evaluated by the Mann-Whitney test.

[1] = test system: stenosis at the level of a coronary artery; assay: Effort trial on a moving belt in dogs with coronary artery stenosis; type: in vivo, dog; conditions: dose 0.018 μmole/kg i.v.; maximum effort at 12 Km/h for 1 minute
Experimental: (b) Effort trial on a moving belt. In this test, a group of at least four dogs is used (equipped with intracardiac electrodes), the dogs having an organic stenosis at the level of a coronary artery. This stenosis causes imbalance between the demand and supply of oxygen when the animal is required to make an effort. This imbalance is expressed on the electrocardiogram by an increase in the ST-segment.
In the trial, the dog runs at a speed of 12 km/h on a moving belt having a slope of 15°. This maximum effort is required for one minute. During the trial, the increase in the ST-segment is recorded, together with the natural increase in the pulse rate. The experiment is repeated at least four times, and the mean of the values obtained is taken as reference (100%) for the group of animals. The animals are then allowed to rest for a minimum of 24 hours before being subjected to a new effort trial under the influence of the compound to be studied.
The compound to be studied is administered slowly (over 1 minute) by intravenous injection 5 minutes before the new effort trial. In the course of the latter, the variations in the same parameters are recorded.

male NMRI mice = assay: Toxicity, Irwin's test (lethal dose); type: in vivo; conditions: intraperitoneal
Experimental: 5. Toxicity. The toxicity of the compounds according to the present invention has been determined in male NMRI mice by means of Irwin's test (S. IRWIN, Psychopharmacologia, 13, (1968), 222-257).
Progressive doses of the test compound are administered intraperitoneally to groups of three mice until the lethal dose is reached (dose causing the death of two out of three animals within 48 hours). In Table IX below, the lethal dose in mg/kg found for the compounds of the invention is given. It can be seen from this Table that the compounds of the invention are not very toxic.

SMILES: Cl.NC(=O)c1cccc(Cc2c[nH]cn2)c1O [A, 2-hydroxyl-3-[(1H-imidazol-4-yl)methyl]-benzamide hydrochloride]
- Neurological scores after 2 days (cerebral ischemia): 15
- reduction in ST-segment [1]: 74%
- reduction in the pulse rate [1]: 3 beats/min.
- lethal dose (death of two out of three animals within 48 hours) (male NMRI mice): 760 mg/kg

From patent publication US4923865A, “Substituted 1-(1H-imidazol-4-yl)alkyl-benzamides as anti-ischemics and as alpha-2-adrenergic receptor agonists” (U C B Societe Anonyme, priority 1988, dated 1990)
